Measurements from PubChem BioAssay AID1259408 (Genetic Toxicology Data Bank (GENE-TOX), 2018).
Calls of active or inactive are those of the source. The rule behind the calls is not given here.

Tested on: GENE-TOX genotoxicity assays, various organisms and cells
Assay: GENE-TOX mutagenicity studies
Details: for call: Assay Type: In vivo carcinogenicity studies, Assay Code: CCG+
[1] = Species/Cell Type: Salmonella typhimurium (one or more of the five standard strains: TA98, TA100, TA1535, TA1537, and TA1538), Assay Type: Histidine reverse gene mutation, Ames assay, Assay Code: SAL+, Evaluation Type: Evaluation A (Pre-1980)
[2] = Species/Cell Type: Bacillus subtilis (H17 vs M45), Assay Type: Rec-assay, spot test, DNA effects (bacterial DNA repair), Assay Code: REW+, Evaluation Type: Evaluation A (Pre-1980)
[3] = Species/Cell Type: Human lymphocytes, Assay Type: Sister-chromatid exchange (SCE) in vitro, Assay Code: SCL+D, Dose Response: With dose response, Evaluation Type: Evaluation B (Post-1980)
[4] = Species/Cell Type: Human, Assay Type: Sister-chromatid exchange (SCE) in vitro, Assay Code: SC1+D, Dose Response: With dose response, Evaluation Type: Evaluation B (Post-1980)
[5] = Species/Cell Type: Mammalian polychromatic erythrocytes, Assay Type: Micronucleus test, chromosome aberrations, Assay Code: MNT+, Evaluation Type: Evaluation B (Post-1980)
[6] = Species/Cell Type: Nonhuman, Assay Type: Chromosome aberrations in vitro, Assay Code: CY&+, Evaluation Type: Evaluation A (Pre-1980)
[7] = Species/Cell Type: Nonhuman, Assay Type: Sister-chromatid exchange (SCE) in vitro, Assay Code: SC2+D, Dose Response: With dose response, Evaluation Type: Evaluation B (Post-1980)
[8] = Species/Cell Type: Salmonella typhimurium (one or more of the five standard strains: TA98, TA100, TA1535, TA1537, and TA1538), Assay Type: Histidine reverse gene mutation, Ames assay, Assay Code: SALT, Evaluation Type: Evaluation A (Pre-1980)
[9] = Species/Cell Type: Salmonella typhimurium, Assay Type: Forward and reverse gene mutation, host-mediated assay, Assay Code: HMA+, Evaluation Type: Evaluation A (Pre-1980)
[10] = Species/Cell Type: Chinese hamster lung (V79) cells, Assay Type: Forward gene mutation at the HPRT or ouabain locus, Assay Code: V79+, Evaluation Type: Evaluation A (Pre-1980)
[11] = Species/Cell Type: Salmonella typhimurium (one or more of the five standard strains: TA98, TA100, TA1535, TA1537, and TA1538), Assay Type: Histidine reverse gene mutation, Ames assay, Assay Code: SAL+*, Activation: With metabolic activation, Evaluation Type: Evaluation A (Pre-1980)
[12] = Species/Cell Type: Saccharomyces cerevisiae, Assay Type: Mitotic recombination or gene conversion, Assay Code: YEC+, Evaluation Type: Evaluation A (Pre-1980)
[13] = Species/Cell Type: Nonhuman, Evaluation Type: Evaluation A (Pre-1980)
[14] = Species/Cell Type: Syrian hamster embryo (SA7/SHE) cells, Assay Type: Cell transformation, viral enhanced, Assay Code: CT7+, Evaluation Type: Evaluation A (Pre-1980)
[15] = Species/Cell Type: Drosophila melanogaster, Assay Type: Sex-linked recessive lethal gene mutation, Assay Code: SRL+, Evaluation Type: Evaluation A (Pre-1980)

## C=C=O
[1]
  mutagenic call: active; positive
Species/Cell Type: Tradescantia species, Assay Type: Chromosome aberrations, Assay Code: TRC+, Evaluation Type: Evaluation A (Pre-1980)
  mutagenic call: active; positive

## [O]=[Cr](=[O])([OH])[O][Cr](=[O])(=[O])[OH]
[2]
  mutagenic call: active; positive
Species/Cell Type: Chinese hamster ovary (CHO) cells, Assay Type: Forward gene mutation at the HPRT locus, Assay Code: CHO+, Evaluation Type: Evaluation B (Post-1980)
  mutagenic call: active; positive
[3]
  mutagenic call: active; positive
[4]
  mutagenic call: active; positive
[5]
  mutagenic call: active; positive
[6]
  mutagenic call: active; positive
Species/Cell Type: Nonhuman, Assay Type: Sister-chromatid exchange (SCE) in vitro, Assay Code: SC2+, Evaluation Type: Evaluation B (Post-1980)
  mutagenic call: active; positive
[7]
  mutagenic call: active; positive
[1]
  mutagenic call: active; positive
Species/Cell Type: Syrian hamster embryo (SHE) cells, Assay Type: Cell transformation, clonal assay, Assay Code: CTC+, Evaluation Type: Evaluation A (Pre-1980)
  mutagenic call: active; positive

## C=C1C(=O)OC2CC(C)C3CC(OCC)OC(OCC)C3(C)CC12 (stereo unspecified)
[1]
  mutagenic call: active; positive

## Nc1c(N=Nc2ccc(S(=O)(=O)O)cc2)cc(N=Nc2ccc(S(=O)(=O)O)cc2)c(N)c1N=Nc1ccc(S(=O)(=O)O)cc1
[8]
  mutagenic call: no conclusion

## COC(=O)Nc1ncc(-c2ccc(OC)cc2)[nH]1
[9]
  mutagenic call: active; positive

## c1ccc2nc3c(ccc4ccccc43)cc2c1
[7]
  mutagenic call: active; positive

## C=CCNC(=O)OC1(Sc2ccccc2)C(=O)c2ccccc2C1=O
Species/Cell Type: Salmonella typhimurium, Assay Type: Forward and reverse gene mutation, host-mediated assay, Assay Code: HMAT, Evaluation Type: Evaluation A (Pre-1980)
  mutagenic call: no conclusion

## CCCCCN(CCCCC)N=O
[10]
  mutagenic call: active; positive
[11]
  mutagenic call: active; positive

## CC(C)Oc1ccccc1OC(=O)N(C)N=O
Species/Cell Type: Bacillus subtilis (H17 vs M45T), Assay Type: Rec-assay, spot test, DNA effects (bacterial DNA repair), Assay Code: REX+, Evaluation Type: Evaluation A (Pre-1980)
  mutagenic call: active; positive
Species/Cell Type: Escherichia coli WP2, Assay Type: Tryptophan reverse gene mutation, Assay Code: WP2+, Evaluation Type: Evaluation A (Pre-1980)
  mutagenic call: active; positive
[12]
  mutagenic call: active; positive
[1]
  mutagenic call: active; positive

## CCCCCN(CCCCO)N=O
[11]
  mutagenic call: active; positive

## CC(C(=O)O)c1ccc(N2CC=CC2)c(Cl)c1 (stereo unspecified)
Species/Cell Type: Human lymphocytes, Assay Type: Sister-chromatid exchange (SCE) in vivo, Assay Code: SCY+, Evaluation Type: Evaluation B (Post-1980)
  mutagenic call: active; positive

## COc1ccccc1[N+](=O)[O-]
[8]
  mutagenic call: no conclusion

## CCCCCCCCCCCCN=C(N)N
Species/Cell Type: Saccharomyces cerevisiae, Assay Type: Mitotic recombination or gene conversion, Assay Code: YEC-, Evaluation Type: Evaluation A (Pre-1980)
  mutagenic call: inactive; negative

## Cc1cccc2c1cc(C)c1c3ccccc3ccc21
[11]
  mutagenic call: active; positive

## CCCCN(CCCCO)N=O
Species/Cell Type: Escherichia coli polA (W3119 vs P3478), Assay Type: Rec-assay, DNA effects (bacterial DNA repair), Assay Code: RE1T, Evaluation Type: Evaluation A (Pre-1980)
  mutagenic call: no conclusion
Species/Cell Type: Nonhuman, Assay Type: Chromosome aberrations in vitro, Assay Code: CY&-, Evaluation Type: Evaluation A (Pre-1980)
  mutagenic call: inactive; negative
[13]
  call: active; positive
[7]
  mutagenic call: active; positive
Species/Cell Type: Nonhuman, Assay Type: Sister-chromatid exchange (SCE) in vitro, Assay Code: SC2T, Evaluation Type: Evaluation A (Pre-1980)
  mutagenic call: no conclusion
[1]
  mutagenic call: active; positive

## Nc1ccc(-c2ccc(N)c(Cl)c2)cc1Cl
Species/Cell Type: Fischer rat embryo (RLV/1706) cells, Assay Type: Cell transformation, viral enhanced, Assay Code: CTR+, Evaluation Type: Evaluation A (Pre-1980)
  mutagenic call: active; positive
Species/Cell Type: Human diploid fibroblasts, Assay Type: Unscheduled DNA synthesis (UDS) in vitro, DNA effects, Assay Code: UDHT, Evaluation Type: Evaluation A (Pre-1980)
  mutagenic call: no conclusion
[5]
  mutagenic call: active; positive
[13]
  call: active; positive
[11]
  mutagenic call: active; positive
[1]
  mutagenic call: active; positive
[14]
  mutagenic call: active; positive

## CCCNP(=O)(N1CC1)N1CC1
[15]
  mutagenic call: active; positive
[6]
  mutagenic call: active; positive
Species/Cell Type: Schizosaccharomyces pombe, Assay Type: Reverse gene mutation, Assay Code: YEZ+, Evaluation Type: Evaluation A (Pre-1980)
  mutagenic call: active; positive

## OCC1=CCN2CC[C@H](O)[C@@H]12
Species/Cell Type: Drosophila melanogaster, Assay Type: Sex-linked recessive lethal gene mutation, Assay Code: SRLT, Evaluation Type: Evaluation A (Pre-1980)
  mutagenic call: no conclusion

## COc1cc2c(c3oc(=O)c4c(c13)CCC4=O)[C@@H]1C=CO[C@@H]1O2
[2]
  mutagenic call: active; positive
[10]
  mutagenic call: active; positive
[15]
  mutagenic call: active; positive
Species/Cell Type: Escherichia coli polA (W3119 vs P3478), Assay Type: Rec-assay, DNA effects (bacterial DNA repair), Assay Code: RE1+, Evaluation Type: Evaluation A (Pre-1980)
  mutagenic call: active; positive
Species/Cell Type: Human diploid fibroblasts, Assay Type: Unscheduled DNA synthesis (UDS) in vitro, DNA effects, Assay Code: UDH+D*, Activation: With metabolic activation, Dose Response: With dose response, Evaluation Type: Evaluation A (Pre-1980)
  mutagenic call: active; positive
Species/Cell Type: Human lymphocytes, Assay Type: Sister-chromatid exchange (SCE) in vitro, Assay Code: SCL+D, Dose Response: With dose response, Evaluation Type: Evaluation A (Pre-1980)
  mutagenic call: active; positive
[3]
  mutagenic call: active; positive
Species/Cell Type: Human, Assay Type: Sister-chromatid exchange (SCE) in vitro, Assay Code: SC1+D, Dose Response: With dose response, Evaluation Type: Evaluation A (Pre-1980)
  mutagenic call: active; positive
[4]
  mutagenic call: active; positive
Species/Cell Type: Mammalian germ cells, Sex: Male, Assay Type: Chromosome aberrations in vivo, Assay Code: CY9T, Evaluation Type: Evaluation A (Pre-1980)
  mutagenic call: no conclusion
Species/Cell Type: Mammalian polychromatic erythrocytes, Assay Type: Micronucleus test, chromosome aberrations, Assay Code: MNT+, Evaluation Type: Evaluation A (Pre-1980)
  mutagenic call: active; positive
Species/Cell Type: Mouse, Sex: Male, Assay Type: Sperm morphology, Assay Code: SPI-, Evaluation Type: Evaluation A (Pre-1980)
  mutagenic call: inactive; negative
Species/Cell Type: Neurospora crassa, Assay Type: Forward gene mutation, Assay Code: NEF+, Evaluation Type: Evaluation A (Pre-1980)
  mutagenic call: active; positive
[6]
  mutagenic call: active; positive
[13]
  call: active; positive
Species/Cell Type: Nonhuman, Assay Type: Sister-chromatid exchange (SCE) in vitro, Assay Code: SC2+D, Dose Response: With dose response, Evaluation Type: Evaluation A (Pre-1980)
  mutagenic call: active; positive
[7]
  mutagenic call: active; positive
Species/Cell Type: Nonhuman, Assay Type: Sister-chromatid exchange (SCE) in vivo, Assay Code: SC3+, Evaluation Type: Evaluation A (Pre-1980)
  mutagenic call: active; positive
Species/Cell Type: Nonhuman, Assay Type: Sister-chromatid exchange (SCE) in vivo, Assay Code: SC3+, Evaluation Type: Evaluation B (Post-1980)
  mutagenic call: active; positive
Species/Cell Type: Rat primary hepatocytes, Assay Type: Unscheduled DNA synthesis (UDS) in vitro, DNA effects, Assay Code: UDP+, Evaluation Type: Evaluation A (Pre-1980)
  mutagenic call: active; positive
Species/Cell Type: Rat, Sex: Male, Assay Type: Sperm morphology, Assay Code: SPA-, Evaluation Type: Evaluation A (Pre-1980)
  mutagenic call: inactive; negative
[12]
  mutagenic call: active; positive
Species/Cell Type: Saccharomyces cerevisiae, Assay Type: Mitotic recombination or gene conversion, Assay Code: YEH+, Evaluation Type: Evaluation A (Pre-1980)
  mutagenic call: active; positive
[1]
  mutagenic call: active; positive
Species/Cell Type: Salmonella typhimurium, Assay Type: Forward and reverse gene mutation, body fluid assay, Assay Code: BFU+, Evaluation Type: Evaluation A (Pre-1980)
  mutagenic call: active; positive
[9]
  mutagenic call: active; positive
[14]
  mutagenic call: active; positive
Species/Cell Type: Syrian hamster embryo (SHE) cells, Assay Type: Cell transformation, clonal assay, Assay Code: CTC+D, Dose Response: With dose response, Evaluation Type: Evaluation A (Pre-1980)
  mutagenic call: active; positive
Species/Cell Type: Syrian hamster embryo (SHE) cells, Assay Type: Cell transformation, focus assay, Assay Code: CTF+, Evaluation Type: Evaluation A (Pre-1980)
  mutagenic call: active; positive

## CC(C)=CCOc1c2occc2cc2ccc(=O)oc12
Species/Cell Type: Human lymphocytes, Assay Type: Sister-chromatid exchange (SCE) in vitro, Assay Code: SCL+, Evaluation Type: Evaluation B (Post-1980)
  mutagenic call: active; positive
Species/Cell Type: Human, Assay Type: Sister-chromatid exchange (SCE) in vitro, Assay Code: SC1+, Evaluation Type: Evaluation B (Post-1980)
  mutagenic call: active; positive
